Results taken from ChEMBL document CHEMBL1201862, “PubChem BioAssay data set” (2004).
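All cell lines were grown in 96-well plates and treated with compound for 48 hours. GI50 is the concentration that inhibits growth by half.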 Active and inactive are the calls of the source. Cut-off read from the data, not from the text of the source: active = GI50 up to about 1.1 µM and inactive = higher.

Assays:
Assay in all cases: NCI-60 cell line screen, 48 h
786-0 = test system: 786-0
A498 = test system: A498
A549 = test system: A549
ACHN = test system: ACHN
BT-549 = test system: BT-549
CAKI-1 = test system: CAKI-1
CCRF-CEM = test system: CCRF-CEM
COLO 205 = test system: COLO 205
DU-145 = test system: DU-145
EKVX = test system: EKVX
HCC 2998 = test system: HCC 2998
HCT-116 = test system: HCT-116
HCT-15 = test system: HCT-15
HL-60 = test system: HL-60
HOP-62 = test system: HOP-62
HOP-92 = test system: HOP-92
HT-29 = test system: HT-29
Hs-578T = test system: Hs-578T
IGROV-1 = test system: IGROV-1
K562 = test system: K562
KM12 = test system: KM12
LOX IMVI = test system: LOX IMVI
M14 = test system: M14
MCF7 = test system: MCF7
MDA-MB-231 = test system: MDA-MB-231
MDA-MB-435 = test system: MDA-MB-435
MDA-N = test system: MDA-N
MOLT-4 = test system: MOLT-4
Malme-3M = test system: Malme-3M
NCI-H226 = test system: NCI-H226
NCI-H23 = test system: NCI-H23
NCI-H460 = test system: NCI-H460
NCI-H522 = test system: NCI-H522
NCI/ADR-RES = test system: NCI/ADR-RES
OVCAR-3 = test system: OVCAR-3
OVCAR-4 = test system: OVCAR-4
OVCAR-5 = test system: OVCAR-5
OVCAR-8 = test system: OVCAR-8
PC-3 = test system: PC-3
RPMI-8226 = test system: RPMI-8226
RXF 393 = test system: RXF 393
SF-268 = test system: SF-268
SF-295 = test system: SF-295
SF-539 = test system: SF-539
SK-MEL-28 = test system: SK-MEL-28
SK-MEL-2 = test system: SK-MEL-2
SK-MEL-5 = test system: SK-MEL-5
SK-OV-3 = test system: SK-OV-3
SN12C = test system: SN12C
SNB-19 = test system: SNB-19
SNB-75 = test system: SNB-75
SR = test system: SR
SW-620 = test system: SW-620
T47D = test system: T47D
TK-10 = test system: TK-10
U-251 = test system: U-251
UACC-257 = test system: UACC-257
UACC-62 = test system: UACC-62
UO-31 = test system: UO-31

In the case of `C/C=C/[P+](c1ccccc1)(c1ccccc1)c1ccccc1`, the GI50 (786-0) is reported as 7.33 µM (inactive), the GI50 (A498) is reported as 6.58 µM (inactive) and the GI50 (A549) is reported as 0.548 µM (active). The GI50 (ACHN) was 4.56 µM (inactive), the GI50 (BT-549) was 0.277 µM (active) and the GI50 (CAKI-1) was > 68.1 µM (inactive). For the same compound, the GI50 (CCRF-CEM) was 0.474 µM (active), the GI50 (COLO 205) was 0.101 µM (active) and the GI50 (DU-145) was 1.15 µM (inactive). The GI50 (EKVX) was 0.296 µM (active), the GI50 (HCC 2998) was 0.24 µM (active) and the GI50 (HCT-116) was 0.433 µM (active). For the same compound, the GI50 (HCT-15) was 25.5 µM, the GI50 (HL-60) was 0.78 µM (active) and the GI50 (HOP-62) was 3.03 µM (inactive). The GI50 (HOP-92) was 0.738 µM (active), the GI50 (HT-29) was 0.914 µM (active) and the GI50 (Hs-578T) was 0.337 µM (active). The GI50 (IGROV-1) was 2.11 µM (inactive), the GI50 (K562) was 0.0649 µM (active) and the GI50 (KM12) was 0.277 µM (active). For the same compound, the GI50 (LOX IMVI) was 1.34 µM (inactive), the GI50 (M14) was 4.92 µM (inactive) and the GI50 (MCF7) was 1.18 µM (inactive). For the same compound, the GI50 (MDA-MB-231) was 2.58 µM (inactive), the GI50 (MDA-MB-435) was 0.277 µM (active) and the GI50 (MDA-N) was 0.35 µM (active). For the same compound, the GI50 (MOLT-4) was 2.42 µM (inactive), the GI50 (Malme-3M) was 0.541 µM (active) and the GI50 (NCI-H226) was 3.57 µM (inactive). The GI50 (NCI-H23) was 2.06 µM (inactive), the GI50 (NCI-H460) was 1.36 µM (inactive) and the GI50 (NCI-H522) was 0.836 µM (active). For the same compound, the GI50 (NCI/ADR-RES) was > 100 µM (inactive), the GI50 (OVCAR-3) was 0.54 µM (active) and the GI50 (OVCAR-4) was 2.77 µM (inactive). For the same compound, the GI50 (OVCAR-5) was 4.24 µM (inactive), the GI50 (OVCAR-8) was 0.426 µM (active) and the GI50 (PC-3) was 0.962 µM (active). The GI50 (RPMI-8226) was 0.0413 µM (active), the GI50 (RXF 393) was 6.14 µM (inactive) and the GI50 (SF-268) was 1.54 µM (inactive). The GI50 (SF-295) was 2.26 µM (inactive), the GI50 (SF-539) was 1.48 µM (inactive) and the GI50 (SK-MEL-28) was 1.29 µM (inactive). The GI50 (SK-MEL-2) was 1.82 µM (inactive), the GI50 (SK-MEL-5) was 0.378 µM (active) and the GI50 (SK-OV-3) was 1.42 µM (inactive). The GI50 (SN12C) was 1.79 µM (inactive), the GI50 (SNB-19) was 0.299 µM (active) and the GI50 (SNB-75) was 3.48 µM (inactive). The GI50 (SR) was 0.381 µM (active), the GI50 (SW-620) was 0.48 µM (active) and the GI50 (T47D) was 0.163 µM (active). For the same compound, the GI50 (TK-10) was 0.787 µM (active), the GI50 (U-251) was 0.102 µM (active) and the GI50 (UACC-257) was 0.295 µM (active). The GI50 (UACC-62) was 1.71 µM (inactive) and the GI50 (UO-31) was 26.7 µM (inactive).

`COc1cc(Nc2n[nH]c(NS(=O)(=O)c3cc(C)c(Cl)cc3S)n2)cc(OC)c1OC` was tested, and the GI50 (786-0) was > 100 µM (inactive), the GI50 (A498) was > 100 µM (inactive) and the GI50 (A549) was > 100 µM (inactive). For the same compound, the GI50 (ACHN) was > 100 µM (inactive), the GI50 (BT-549) was > 100 µM (inactive) and the GI50 (CAKI-1) was > 100 µM (inactive). For the same compound, the GI50 (CCRF-CEM) was > 100 µM (inactive), the GI50 (COLO 205) was > 100 µM (inactive) and the GI50 (DU-145) was > 100 µM (inactive). The GI50 (EKVX) was > 100 µM (inactive), the GI50 (HCC 2998) was > 100 µM (inactive) and the GI50 (HCT-116) was > 100 µM (inactive). The GI50 (HCT-15) was greater than 100 µM, the GI50 (HL-60) was > 100 µM (inactive) and the GI50 (HOP-62) was > 100 µM (inactive). For the same compound, the GI50 (HOP-92) was > 100 µM (inactive), the GI50 (HT-29) was > 100 µM (inactive) and the GI50 (Hs-578T) was > 100 µM (inactive). For the same compound, the GI50 (IGROV-1) was > 100 µM (inactive), the GI50 (K562) was > 100 µM (inactive) and the GI50 (KM12) was > 100 µM (inactive). The GI50 (LOX IMVI) was > 100 µM (inactive), the GI50 (M14) was > 100 µM (inactive) and the GI50 (MCF7) was > 100 µM (inactive). For the same compound, the GI50 (MDA-MB-231) was > 100 µM (inactive), the GI50 (MDA-MB-435) was > 100 µM (inactive) and the GI50 (MDA-N) was > 100 µM (inactive). The GI50 (MOLT-4) was > 100 µM (inactive), the GI50 (Malme-3M) was > 100 µM (inactive) and the GI50 (NCI-H226) was > 100 µM (inactive). For the same compound, the GI50 (NCI-H23) was > 100 µM (inactive), the GI50 (NCI-H460) was > 100 µM (inactive) and the GI50 (NCI-H522) was > 100 µM (inactive). For the same compound, the GI50 (NCI/ADR-RES) was > 100 µM (inactive), the GI50 (OVCAR-3) was > 100 µM (inactive) and the GI50 (OVCAR-4) was > 100 µM (inactive). The GI50 (OVCAR-5) was > 100 µM (inactive), the GI50 (OVCAR-8) was > 100 µM (inactive) and the GI50 (PC-3) was > 100 µM (inactive). For the same compound, the GI50 (RPMI-8226) was > 100 µM (inactive), the GI50 (RXF 393) was > 100 µM (inactive) and the GI50 (SF-268) was > 100 µM (inactive). For the same compound, the GI50 (SF-295) was > 100 µM (inactive), the GI50 (SF-539) was > 100 µM (inactive) and the GI50 (SK-MEL-28) was > 100 µM (inactive). For the same compound, the GI50 (SK-MEL-2) was > 100 µM (inactive), the GI50 (SK-MEL-5) was > 100 µM (inactive) and the GI50 (SK-OV-3) was > 100 µM (inactive). For the same compound, the GI50 (SN12C) was > 100 µM (inactive), the GI50 (SNB-19) was > 100 µM (inactive) and the GI50 (SNB-75) was > 100 µM (inactive). For the same compound, the GI50 (SR) was > 100 µM (inactive), the GI50 (SW-620) was > 100 µM (inactive) and the GI50 (T47D) was > 100 µM (inactive). For the same compound, the GI50 (TK-10) was > 100 µM (inactive), the GI50 (U-251) was > 100 µM (inactive) and the GI50 (UACC-257) was > 100 µM (inactive). The GI50 (UACC-62) was > 100 µM (inactive) and the GI50 (UO-31) was > 100 µM (inactive).
